Measurements reported in US4980287A, “4H-3,1-benzoxazin-4-one compounds and pharmaceutical compositions thereof for the inhibition of serine proteases” (Teijin Limited, priority 1987, dated 1990).

What was measured:
[1] = target: T1, bovine pancreas α-chymotrypsin (Bos taurus, UniProt P00766); assay: α-chymotrypsin-inhibitory activity (hydrolysis of succinyl-Ala-Ala-Pro-Phe-p-nitroanilide); assay type: biochemical; details: for IC50 / Selectivity: Table 10; for IC50: procedure of Example 19 (B); for Selectivity: ratio of IC50 for bovine α-chymotrypsin to IC50 for human purulent sputum elastase
T1 construct: bovine pancreas α-chymotrypsin; purchased Sigma Co; host or cells: bovine pancreas
Description: An in vitro test similar to that mentioned above can be applied to chymotrypsin.
As a chymotrypsin, α-chymotrypsin of bovine pancreas, which is readily available commercially, is used. […] The extent of the hydrolysis of AAPFpNA is measured in the absence of a compound to be tested or in the presence of the compound in various concentrations thereof, and thus a concentration (IC50) of the compound necessary to inhibit 50% of the enzyme reaction can be determined.
(§1) Inhibitory activities of 7-(N-carbobenzoxy-L-phenylalanyl)amino-2-isopropylamino-5-methyl-4H-3,1- benzoxazin-4-one for human purulent sputum elastase, for α-chymotrypsin, for cathepsin G, for trypsin, for thrombin and for plasmin were determined by the following methods and the results are shown in Table 9.
The same procedures as those described in the above item (A) for the human purulent sputum elastase were carried out, with the following exception.
The enzyme-testing tuffer solution contained 2×10^-8 M bovine pancreas α-chymotrypsin (available from Sigma Co.). The synthetic substrate was succinyl-L-alanyl-L-alanyl-L-prolyl-L-henylalanyl-p-nitroanilide (available from Bachem Co.).
An IC50 for the α-chymotrypsin was determined in the same manner as mentioned above. (C) Determination of human cathepsin G-inhibitory activity
(§2) In each of Examples 20 to 37 and Comparative Examples 1 to 4, the same experimental procedures as those described in Example 19, items (A) and (B) were used for determination of enzyme inhibitory activity, except that the compound indicated in Table 10 was tested as an inhibitory compound.
In Table 10, the item "Selectivity" refers to a ratio of an IC50 value for bovine α-chymotrypsin to an IC50 value for human purulent sputum elastase. The larger the value of the ratio, the higher the selectivity of the inhibitory activity for elastase.

[2] = target: T2, human purulent sputum elastase (Homo sapiens, UniProt P08246); assay: Human purulent sputum elastase-inhibitory activity (hydrolysis of methoxysuccinyl-peptidyl-p-nitroanilide, absorbance at 410 nm); assay type: biochemical; details: for IC50: Table 10, procedure of Example 19 (A)
T2 construct: purchased Elastin Products Co; host or cells: human purulent sputum
T2 sequence (P08246 30-247 limits assumed): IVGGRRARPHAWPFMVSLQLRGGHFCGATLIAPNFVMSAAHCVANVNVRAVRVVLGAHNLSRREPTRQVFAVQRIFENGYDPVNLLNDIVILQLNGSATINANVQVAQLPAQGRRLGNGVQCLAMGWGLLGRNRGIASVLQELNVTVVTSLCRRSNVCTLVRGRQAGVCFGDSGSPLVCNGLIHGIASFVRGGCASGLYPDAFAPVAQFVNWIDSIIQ
Source text: Human purulent sputum elastase is believed to be the same enzyme as human leukocyte elastase, as described by Tomashi et al. (J. BIOL. CHEM., vol. 252, pages 1917 to 1924 (1977)), and can be easily obtained commercially.
The extent of the hydrolysis of AAPVpNA by human purulent sputum elastase can be easily determined by measuring the amount of p-nitroaniline released from AAPVpNA, by a spectrophotometer. Then, by comparing the extent of hydrolysis of AAPVpNA by the human purulent sputum elastase in the absence of a compound to be tested with that in the presence of the compound to be tested in various concentrations, a concentration (IC50) of the compound to be tested necessary to inhibit 50% of the elastase reaction can be determined.
as §1
The testing buffer (pH7.5) consisted of 0.1M N-2-hyiroxyethylpiperazine-N'-2-ethanesulfonic acid, 1M sodium chloride and 0.1% w/v polyethylene glycol 6000.
Human purulent sputum elastase was obtained from Elastin Products Co., and adjusted to 1.5×10^-8 M in the testing buffer.
Methoxysuccinyl-[…]-p-nitroanilide was obtained from Bachem Co., and made to 10 mM in dimethyl sulfoxide.
Procedure To 2.4ml of testing buffer in a cell set at 37° in a spectrophotometer (Hitachi U-3200) with a temperature controlled cell holder were added 25 μl of substrate solution and 25 μl of acetonitrile with or without inhibitory compounds, and the resultant mixture was stirred. Reactions were initiated by addition of 50 μl of the enzyme solution and hydrolysis of the substrate was monitored by measuring a change of light absorbance at 410 nm. The concentration (IC50) at which 50% of the activity of human purulent sputum elastase was inhibited was determined for each inhibitory compound from a steady state velocity of the substrate hydrolysis.
as §2

human plasmin = target: T3, human plasmin (Homo sapiens, UniProt P00747); assay: Plasmin-inhibitory activity; assay type: biochemical; details: Table 9
T3 construct: human plasmin; purchased Daiichi Kagaku Yakuhin K.K
Description: as §1
The same procedures as those described in item (A) were carried out except that the enzyme testing buffer solution contained 0.6 CasU/ml human plasmin (available from Daiichi Kagaku Yakuhin K.K.) and the substrate consisted of D-valyl-L-leucyl-L-lysyl-p-nitro-anilide (available from Daiichi Kagaku Yakuhin K.K.).
An IC50 for the human plasmin was determined in the same manner as mentioned above.

[3] = Stability in human serum (37° C., HPLC peak area); assay type: in vitro ADME
Description: A solution of […] of 7-(N-carbobenzoxy-L-phenylalanyl)amino-2-isopropylamino-5-methyl-4H-3,1-benzoxazin-4-one in 50 μl acetonitrile was mixed with 0.45 ml of human serum, and the resultant mixture was allowed to stand at a temperature of 37° C. The mixture was subjected to treatment with a Sep-pac C18 cartridge (trademark, made by Waters Cc.) for removal of protein, and a portion of the resultant acetonitrile-eluted fraction was subjected to a high speed liquid chromatographic analysis.

human thrombin = target: T4, human thrombin (Homo sapiens, UniProt P00734); assay: Thrombin-inhibitory activity; assay type: biochemical; details: Table 9
T4 construct: human thrombin; purchased Daiichi Kagaku Yakuhin K.K
Description: as §1
The same procedures as those described in item (A) were carried out except that the enzyme-testing buffer solution contained 0.04 μkat/ml human thrombin (available from Daiichi Kagaku Yakuhin K.K.) and the substrate consisted of D-phenylalanyl-pipecolyl-arginyl-p-nitroanilide (available from Daiichi Kagaku Yakuhin K.K.).
An IC for the human thrombin was determined in the same manner as mentioned above.

[4] = ratio of IC50 for the protease to IC50 for human purulent sputum elastase
[5] = Table 9, ratio of IC50 for the protease to IC50 for human purulent sputum elastase

T3 sequence (P00747 581-810 limits assumed): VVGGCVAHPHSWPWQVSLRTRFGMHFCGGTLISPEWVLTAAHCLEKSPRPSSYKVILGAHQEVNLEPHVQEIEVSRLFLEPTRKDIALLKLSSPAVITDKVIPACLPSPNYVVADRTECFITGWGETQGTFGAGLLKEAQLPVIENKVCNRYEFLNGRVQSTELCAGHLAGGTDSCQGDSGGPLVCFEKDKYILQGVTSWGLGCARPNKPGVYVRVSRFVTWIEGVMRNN
T3 sequence (P00747 97-580 partner limits assumed): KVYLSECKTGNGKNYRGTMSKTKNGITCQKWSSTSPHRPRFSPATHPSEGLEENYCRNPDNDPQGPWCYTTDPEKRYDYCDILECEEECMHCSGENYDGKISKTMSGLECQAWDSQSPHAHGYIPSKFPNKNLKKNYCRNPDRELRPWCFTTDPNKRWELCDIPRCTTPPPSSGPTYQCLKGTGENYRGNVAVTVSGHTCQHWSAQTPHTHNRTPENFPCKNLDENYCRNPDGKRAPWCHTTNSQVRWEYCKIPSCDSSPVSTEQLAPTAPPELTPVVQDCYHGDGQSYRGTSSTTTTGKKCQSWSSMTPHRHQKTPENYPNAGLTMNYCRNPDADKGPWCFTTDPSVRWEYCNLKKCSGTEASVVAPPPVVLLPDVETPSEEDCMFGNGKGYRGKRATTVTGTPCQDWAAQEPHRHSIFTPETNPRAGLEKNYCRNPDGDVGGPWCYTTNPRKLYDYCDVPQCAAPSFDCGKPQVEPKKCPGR

SMILES | IC50 [1] | Selectivity [1] | IC50 [2] | also measured
Cc1cc(NC(=O)[C@H](Cc2ccccc2)NC(=O)OCc2ccccc2)cc2nc(NC(C)C)oc(=O)c12 [Example 36, 7-(N-carbobenzoxy-L-phenylalanyl)amino-5-methyl-2-isopropylamino-4H-3,1-benzoxazin-4-one] | 25 nM | 19 | 1.3 nM | IC50 (human plasmin; 0.6 CasU/ml enzyme): 75000 nM; Selectivity, human plasmin (human plasmin; [4]): 58,000; half-life [3]: 2.5 h; IC50 (human thrombin; 0.04 μkat/ml enzyme): > 100000 nM; Selectivity, human thrombin (human thrombin; [4]): > 100,000; Selectivity, bovine pancreas α-chymotrypsin [1, 5]: 19; Selectivity, human purulent sputum elastase [2, 5]: 1
CC(C)Oc1nc2cc(NC(=O)[C@H](CCC(=O)OCc3ccccc3)NC(=O)OCc3ccccc3)ccc2c(=O)o1 [Example 26] | > 500 nM | > 20 | 26 nM | 
CC(C)Oc1nc2cc(NC(=O)[C@H](Cc3ccccc3)NC(=O)OC(C)(C)C)ccc2c(=O)o1 [Example 29] | 94 nM | 2.0 | 46 nM | 
Cc1cccc2nc(OC(C)C)oc(=O)c12 [compound 4, reference compound] | 120 nM | 2.9 | 41 nM | 
CC(=O)Nc1ccc2c(=O)oc(OC(C)C)nc2c1 [compound 3, reference compound] | 32 nM | 0.55 | 58 nM | 
CC(C)Oc1nc2cc(NC(=O)[C@@H](NC(=O)OCc3ccccc3)C(C)C)ccc2c(=O)o1 [Example 23] | 160 nM | 6.6 | 24 nM | 
CC(C)Oc1nc2ccccc2c(=O)o1 [compound 2, reference compound] | 22 nM | 0.44 | 49 nM | 
Cc1cc(NC(=O)[C@H](Cc2ccccc2)NC(=O)OCc2ccccc2)cc2nc(OC(C)C)oc(=O)c12 [Example 34, 7-(N-carbobenzoxy-L-phenylalanyl)amino-2-isopropoxy-5-methyl-4H-3,1-benzoxazin-4-one] | 10 nM | 18 | 0.55 nM | 
CC(C)Oc1nc2cc(NC(=O)[C@@H](Cc3ccccc3)NC(=O)OCc3ccccc3)ccc2c(=O)o1 [Example 27] | 490 nM | 12 | 41 nM | 
CC(C)Oc1nc2cc(NC(=O)[C@@H](NC(=O)[C@@H]3CCCN3C(=O)OCc3ccccc3)C(C)C)ccc2c(=O)o1 [Example 32] | 120 nM | 5.8 | 20 nM | 
CC(C)Oc1nc2cc(NC(=O)[C@H](Cc3ccccc3)NC(=O)OCc3ccccc3)ccc2c(=O)o1 [Example 24] | 340 nM | 31 | 11 nM | 

Further lines, with some results ahead:

IC50 [1] | Selectivity [1] | IC50 [2] | SMILES | also measured
130 nM | 3.7 | 35 nM | CC(C)Oc1nc2cc(NC(=O)[C@@H]3CCCN3C(=O)OC(C)(C)C)ccc2c(=O)o1 [Example 28] | 
580 nM | 41 | 14 nM | CC(C)Oc1nc2cc(NC(=O)[C@H](CCCCNC(=O)OCc3ccccc3)NC(=O)OCc3ccccc3)ccc2c(=O)o1 [Example 25] | 
180 nM | 5.6 | 21 nM | CC(C)Oc1nc2cc(NC(=O)[C@@H](NC(=O)[C@H](Cc3ccccc3)NC(=O)OCc3ccccc3)C(C)C)ccc2c(=O)o1 [Example 33] | 
370 nM | 4.8 | 77 nM | CC(C)Oc1nc2cc(NC(=O)[C@H](C)NC(=O)OCc3ccccc3)ccc2c(=O)o1 [Example 22] | 
180 nM | 5.6 | 32 nM | CC(C)Oc1nc2cc(NC(=O)[C@@H]3CCCN3C(=O)[C@H](C)NC(=O)OCc3ccccc3)ccc2c(=O)o1 [Example 31] | 
680 nM | 0.10 | 6200 nM | O=c1oc(C(F)(F)F)nc2ccccc12 [compound 1, reference compound] | 
17000 nM | 7.7 | 2200 nM | O=C(Nc1ccc2c(=O)oc(C(F)(F)F)nc2c1)[C@@H]1CCCN1C(=O)OCc1ccccc1 [Example 20, 7-(N-carbobenzoxy-L-prolyl)amino-2-trifluoromethyl-4H-3,1-benzoxazin-4-one] | 
170 nM | 3.9 | 44 nM | CC(C)Oc1nc2cc(NC(=O)[C@@H]3CCCN3C(=O)OCc3ccccc3)ccc2c(=O)o1 [Example 21, 7-(N-carbobenzoxy-L-prolyl)amino-2-isopropoxy-4H-3,1-benzoxazin-4-one] | 
490 nM | 3.8 | 130 nM | CC(=O)N1CCC[C@H]1C(=O)Nc1ccc2c(=O)oc(OC(C)C)nc2c1 [Example 30] | 
160000 nM | 31 | 5100 nM | Cc1nc2cc(NC(=O)[C@H](Cc3ccccc3)NC(=O)OCc3ccccc3)ccc2c(=O)o1 [Example 37, 7-(N-carbobenzoxy-L-phenylalanyl)amino-2-methyl-4H-3,1-benzoxazin4-one] | 
